What was measured:
LPS-induced TNFα = test: Inhibition of the formation of LPS-induced TNFα in RAW264.7 macrophages; assay type: cell-based
Text: As for determination of inhibitory activity of Strepsesquitriol on the formation of lipopolysaccharide (LPS)-induced TNFα in RAW264.7 macrophages, please refer to the references (Fan, S. Y.; Zeng, H. W.; Pei, Y. H.; Li. L.; Ye, J.; Pan, Y. X.; Zhang, J. G.; Yuan, X.; Zhang, W. D. The anti-inflammatory activities of an extract and compounds isolated from Platycladus orientalis (Linnaeus) Franco in vitro and ex vivo J Ethnopharmacol 2012, 141, 647-652) ENREF 3.

RAW264.7 cells = test: Cytotoxic activity to RAW264.7 cells; assay type: cell-based; details: concentration 100 μM

`C[C@H]1C[C@@H](O)[C@]23C[C@H](CC[C@]12O)C(C)(C)[C@]3(C)O` [Strepsesquitriol A, (1R,2R,4S,5S,8S,10S)-4,9,9,10-tetramethyl-2,5,10-trihydroxyltricyclo[6.2.1.0^1,5]undecane] was tested, and the inhibition at 3.6 µM (LPS-induced TNFα; Mus musculus, concentration 3.6 μM, read-out: Inhibition rate (%)) was 3.4 ± 2.8%, the inhibition at 11 µM (LPS-induced TNFα; Mus musculus, concentration 11.0 μM, read-out: Inhibition rate (%)) was 8 ± 1.6% and the inhibition at 33 µM (LPS-induced TNFα; Mus musculus, concentration 33.0 μM, read-out: Inhibition rate (%)) was 30.6 ± 1.4%. For the same molecule, the inhibition at 100 µM (LPS-induced TNFα; Mus musculus, concentration 100 μM, read-out: Inhibition rate (%)) was 35.4% and the cytotoxic activity (RAW264.7 cells) was “no cytotoxic activity”.

In the case of `Cc1ccc(S(=O)(=O)N[C@@H](Cc2ccccc2)C(=O)CCl)cc1` [TPCK, N-p-tosyl-1-phenylalanine chloromethyl ketone, reference compound], the “Inhibition rate (%)” value (LPS-induced TNFα; concentration 100 μM) is reported as 60.6%.
